Test results taken from patent US20260022143A1, “Cyclic Peptide Inhibitors of IL-23” (JANSSEN PHARMACEUTICA NV, priority 2022, published 2026).
Counter-ions that a name gives are not always drawn. Like-named read-outs stand apart in the source and are kept apart here. Starred links: 1 amine or outer side, 2 acyl side, 3 side chain; linkers in the order of their positions; H or OH if unused. Positions of bridges follow the written chain, without caps; N, C: chain ends. Non-standard residues stand in square brackets, D forms with d. Residues, ends and D or L forms follow the SMILES beside them. *: point of attachment. Me3N+CH2CH2(OCH2CH2)4CO = C[N+](C)(C)CCOCCOCCOCCOCCC(=O)*; Me3N+(CH2)2O(CH2)2O(CH2)2CO = C[N+](C)(C)CCOCCOCCC(=O)*; Trp(7-Me) = Cc1cccc2c(C[C@H](N)C(=O)O)c[nH]c12; dLys(Me3) = C[N+](C)(C)CCCC[C@@H](N)C(=O)O; X1 = CN(CC[C@H](N[*:1])C(=O)[*:2])[*:3]; 2Nal = N[C@@H](Cc1ccc2ccccc2c1)C(=O)O; AEF = NCCOc1ccc(C[C@H](N)C(=O)O)cc1; 3Pal = N[C@@H](Cc1cccnc1)C(=O)O; Lys(Me) = CNCCCC[C@H](N)C(=O)O; Pen = CC(C)(S)[C@H](N)C(=O)O; Thp = NC1(C(=O)O)CCOCC1; X3 = C[N+](C)(C)CCCCC*; Me2NCH2CH2 = CN(C)CC*; Tfa = O=C(C(F)(F)F)*; Sar = CNCC(=O)O

Assays:
IL-23R = molecular target: T1, IL-23R (Homo sapiens, UniProt Q5VWK5); test: IL23R Reporter Assay; format: cell-based; conditions: HEK293 cells containing IL-23R, IL-12RP1 and STAT-inducible firefly luciferase reporter; 10 ng/mL IL-23 (EC90); 5 h at 37° C.; read-out: IL23R Reporter Assay
T1 construct: host or cells: HEK293
T1 sequence (Q5VWK5 24-629): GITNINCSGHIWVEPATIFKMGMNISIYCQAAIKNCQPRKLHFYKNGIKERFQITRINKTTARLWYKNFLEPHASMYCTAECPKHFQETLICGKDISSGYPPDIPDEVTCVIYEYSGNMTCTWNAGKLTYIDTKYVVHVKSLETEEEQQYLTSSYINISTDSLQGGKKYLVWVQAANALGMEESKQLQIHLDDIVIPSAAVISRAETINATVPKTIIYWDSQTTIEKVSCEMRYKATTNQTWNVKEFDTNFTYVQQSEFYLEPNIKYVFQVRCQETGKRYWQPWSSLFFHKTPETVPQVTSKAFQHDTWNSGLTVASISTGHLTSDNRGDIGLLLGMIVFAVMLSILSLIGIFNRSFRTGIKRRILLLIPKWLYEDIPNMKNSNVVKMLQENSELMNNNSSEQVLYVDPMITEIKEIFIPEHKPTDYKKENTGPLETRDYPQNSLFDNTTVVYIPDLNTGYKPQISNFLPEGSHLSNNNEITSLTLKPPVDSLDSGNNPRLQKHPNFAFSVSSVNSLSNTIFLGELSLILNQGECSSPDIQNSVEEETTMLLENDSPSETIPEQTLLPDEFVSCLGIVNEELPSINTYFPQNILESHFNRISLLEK

[1] = molecular target: T2, interleukin-23 (IL-23) receptor (Homo sapiens, UniProt Q5VWK5); test: PBMC pSTAT3 assay; format: cell-based
T2 construct: Cryopreserved peripheral blood mononuclear cells (PBMCs) from healthy donors were thawed; endogenous in cells; host or cells: cryopreserved PBMCs from healthy donors, expanded 4 days on anti-CD3 with IL-1
T2 sequence (Q5VWK5 24-629): T1 sequence (Q5VWK5 24-629)
Procedure: Cryopreserved peripheral blood mononuclear cells (PBMCs) from healthy donors were thawed and washed twice in ImmunoCult-XF T cell expansion medium (XF-TCEM) supplemented with CTL anti-aggregate wash. The cells were counted, resuspended at 2×10^5 cells per mL XF-TCEM supplemented with penicillin/streptomycin and 100 ng/mL IL-1 (BioLegend, 579404), and cultured in tissue culture flasks coated with anti-CD3 (eBioscience, 16-0037-85 or BD Pharmingen, 555329) at 37° C. in 5% CO2. On day 4 of culture, PBMCs were collected, washed twice in RPMI-1640 supplemented with 0.1% BSA (RPMI-BSA), and incubated in RPMI-BSA in upright tissue culture flasks for 4 hours at 37° C. in 5% CO2. Following this ‘starvation,’ a total of 6×10^4 cells in […] RPMI-BSA was transferred into each well of a 384-well plate pre-spotted with peptide or DMSO. The cells were incubated for 30 minutes prior to the addition of IL-23 at a final concentration of 5 ng/mL. The cells were stimulated with cytokine for 30 minutes at 37° C. in 5% CO2, transferred onto ice for 10 minutes, and lysed. Cell lysates were stored at −80° C. until phosphorylated STAT3 was measured using the phospho-STAT panel kit (Meso Scale Discovery, K15202D).

[2] = Exposed Polar Surface Area (EPSA); format: physicochemical; conditions: SFC on Chirex 3014 column, sample 1 mM DMSO stock
How it was run: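 SFC retention on a Chirex 3014 (S)-valine/(R)-1-(α-naphthyl)ethylamine column, 35 °C, CO2 with MeOH (20 mM ammonium formate) gradient 5–60% at 20%/min, 14 MPa outlet. Retention times converted to EPSA (Å^2) via linear calibration with 8 standards; samples from 1 mM DMSO stock, run in duplicate.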

| SMILES | IC50 (IL-23R) [nM] | IC50 [1] [nM] | EPSA ([2]; listed as 1) [Å^2] | EPSA ([2]; read-out: EPSA) [A^2] | EPSA [2] [Å^2] |
| --- | --- | --- | --- | --- | --- |
| CC(=O)NCCCC[C@H](NC(=O)C1(NC(=O)[C@H](Cc2ccc3ccccc3c2)NC(=O)[C@H](Cc2ccc(OCCN)cc2)NC(=O)[C@H]2NC(=O)[C@H](CCCCN(C)C(C)=O)NC(=O)[C@H](Cc3c[nH]c4c(C)cccc34)NC(=O)[C@H]([C@@H](C)O)NC(=O)[C@H](CC(N)=O)NC(=O)[C@@H](NC(C)=O)C(C)(C)SSC2(C)C)CCOCC1)C(=O)N[C@@H](CC(N)=O)C(=O)N[C@@H](Cc1cccnc1)C(=O)N(C)CC(N)=O [SEQ ID 57] (Ac-[Pen]NT[Trp(7-Me)][Lys(Me)](Ac)[Pen][AEF][2Nal][Thp]K(Ac)N[3Pal][Sar]-NH2; disulfide 1-6) | ~6290 | 0.0076 | 179.2 | 166 | – |
| Cc1cccc2c(C[C@@H]3NC(=O)[C@H]([C@@H](C)O)NC(=O)[C@H](CC(N)=O)NC(=O)[C@@H](NC(=O)C(F)(F)F)C(C)(C)SSC(C)(C)[C@@H](C(=O)N[C@@H](Cc4ccc(OCCN)cc4)C(=O)N[C@@H](Cc4ccc5ccccc5c4)C(=O)NC4(C(=O)N[C@@H](CCC(=O)N(C)C)C(=O)N[C@@H](CC(N)=O)C(=O)N[C@@H](Cc5cccnc5)C(=O)N(C)CC(N)=O)CCOCC4)NC(=O)[C@H](CCC(=O)N(C)C)NC3=O)c[nH]c12 [compound 62] (Tfa-[Pen]NT[Trp(7-Me)]E(NMe2)[Pen][AEF][2Nal][Thp]E(NMe2)N[3Pal][Sar]-NH2; disulfide 1-6 (inferred)) | 3.2 | 0.0081 | – | 160 | – |
| CC(=O)N(C)CCCC[C@@H]1NC(=O)[C@H](Cc2c[nH]c3c(C)cccc23)NC(=O)[C@H]([C@@H](C)O)NC(=O)[C@H](CC(=O)N(C)C)NC(=O)[C@@H](NC(=O)C(F)(F)F)C(C)(C)SSC(C)(C)[C@@H](C(=O)N[C@@H](Cc2ccc(OCCN)cc2)C(=O)N[C@@H](Cc2ccc3ccccc3c2)C(=O)NC2(C(=O)N[C@@H](CCCCN(C)C(C)=O)C(=O)N[C@@H](CC(N)=O)C(=O)N[C@@H](Cc3cccnc3)C(=O)N(C)CC(=O)N(C)C)CCOCC2)NC1=O [compound 68, CF3CO-Pen(3)-N(N(Me)2)-T-7MeW-K(NMeAc)-Pen(3)-AEF-2Nal-THP-K(NMeAc)-N-3Pya-Sar-CON(Me)2] (Tfa-[Pen]D(NMe2)T[Trp(7-Me)][Lys(Me)](Ac)[Pen][AEF][2Nal][Thp][Lys(Me)](Ac)N[3Pal][Sar]-NMe2; disulfide 1-6) | – | 0.012 | – | 148 | – |
| CC(=O)NCCCC[C@@H]1NC(=O)[C@H](Cc2c[nH]c3c(C)cccc23)NC(=O)[C@H]([C@@H](C)O)NC(=O)[C@H](CC(N)=O)NC(=O)[C@@H](NC(=O)CCOCCOCC[N+](C)(C)C)C(C)(C)SSC(C)(C)[C@@H](C(=O)N[C@@H](Cc2ccc(OCCN)cc2)C(=O)N[C@@H](Cc2ccc3ccccc3c2)C(=O)NC2(C(=O)N[C@@H](CCC(=O)O)C(=O)N[C@@H](CC(N)=O)C(=O)N[C@@H](Cc3cccnc3)C(=O)N(C)CC(N)=O)CCOCC2)NC1=O [compound 82, cPEG3aCO-Pen(3)-N-T-7MeW-K(Ac)-Pen(3)-AEF-2Nal-THP-E-N-3Pya-Sar-CONH2] ({Me3N+(CH2)2O(CH2)2O(CH2)2CO}-[Pen]NT[Trp(7-Me)]K(Ac)[Pen][AEF][2Nal][Thp]EN[3Pal][Sar]-NH2; disulfide 1-6) | – | 0.0057 | – | 171 | – |
| CC(=O)N(C)CCCC[C@@H]1NC(=O)[C@H](Cc2c[nH]c3c(C)cccc23)NC(=O)[C@H]([C@@H](C)O)NC(=O)[C@H](CC(=O)N(C)C)NC(=O)[C@@H](NC(=O)C(F)(F)F)C(C)(C)SSC(C)(C)[C@@H](C(=O)N[C@@H](Cc2ccc(OCCN(C)C)cc2)C(=O)N[C@@H](Cc2ccc3ccccc3c2)C(=O)NC2(C(=O)N[C@@H](CCC(=O)O)C(=O)N[C@@H](CC(N)=O)C(=O)N[C@@H](Cc3cccnc3)C(=O)N(C)CC(=O)N(C)C)CCOCC2)NC1=O [compound 104, CF3CO-Pen(3)-N(N(Me)2)-T-7MeW-K(NMeAc)-Pen(3)-AEF(N(Me)2)-2Nal-THP-E-N-3Pya-Sar-CON(Me)2] (Tfa-[Pen]D(NMe2)T[Trp(7-Me)][Lys(Me)](Ac)[Pen]Y(Me2NCH2CH2)[2Nal][Thp]EN[3Pal][Sar]-NMe2; disulfide 1-6) | – | 0.0032 | – | 150 | – |
| CC(=O)N[C@H](CCCC[N+](C)(C)C)C(=O)N[C@@H]1C(=O)N[C@@H](CC(=O)N(C)C)C(=O)N[C@@H]([C@@H](C)O)C(=O)N[C@@H](Cc2c[nH]c3c(C)cccc23)C(=O)N[C@@H](CCCCN(C)C(C)=O)C(=O)N[C@H](C(=O)N[C@@H](Cc2ccc(OCCN(C)C)cc2)C(=O)N[C@@H](Cc2ccc3ccccc3c2)C(=O)NC2(C(=O)N[C@@H](CCC(=O)O)C(=O)N[C@@H](CC(N)=O)C(=O)N[C@@H](Cc3cccnc3)C(=O)N(C)CC(=O)N(C)C)CCOCC2)C(C)(C)SSC1(C)C [compound 105, MeCO-k(Me)3-Pen(3)-N(N(Me)2)-T-7MeW-K(NMeAc)-Pen(3)-AEF(N(Me)2)-2Nal-THP-E-N-3Pya-Sar-CON(Me)2] (Ac-[dLys(Me3)][Pen]D(NMe2)T[Trp(7-Me)][Lys(Me)](Ac)[Pen]Y(Me2NCH2CH2)[2Nal][Thp]EN[3Pal][Sar]-NMe2; disulfide 2-7) | – | 0.0075 | – | 155 | – |
| Cc1cccc2c(C[C@@H]3NC(=O)[C@H]([C@@H](C)O)NC(=O)[C@H](CC(=O)N(C)C)NC(=O)[C@@H](NC(=O)CCOCCOCCOCCOCC[N+](C)(C)C)C(C)(C)SSC(C)(C)[C@@H](C(=O)N[C@@H](Cc4ccc(OCCN)cc4)C(=O)N[C@@H](Cc4ccc5ccccc5c4)C(=O)NC4(C(=O)N[C@@H](CCC(=O)O)C(=O)N[C@@H](CC(N)=O)C(=O)N[C@@H](Cc5cccnc5)C(=O)N(C)CC(=O)N(C)C)CCOCC4)NC(=O)[C@H](CCN(C)C(=O)CCOCCOCCOCCOCC[N+](C)(C)C)NC3=O)c[nH]c12 [compound 145, cPEG5aCO-Pen(3)-N(N(Me)2)-T-7MeW-Dab(NMecPEG5a)-Pen(3)-AEF-2Nal-THP-E-N-3Pya-Sar-CON(Me)2] ({Me3N+CH2CH2(OCH2CH2)4CO}-[Pen]D(NMe2)T[Trp(7-Me)][X1](Me3N+CH2CH2(OCH2CH2)4CO)[Pen][AEF][2Nal][Thp]EN[3Pal][Sar]-NMe2; disulfide 1-6) | 5.7 | 0.022 | – | 158 | – |
| CC(=O)N(C)CCCC[C@@H]1NC(=O)[C@H](Cc2c[nH]c3c(C)cccc23)NC(=O)[C@H]([C@@H](C)O)NC(=O)[C@H](CC(=O)N(C)C)NC(=O)[C@@H](NC(=O)CCOCCOCC[N+](C)(C)C)C(C)(C)SSC(C)(C)[C@@H](C(=O)N[C@@H](Cc2ccc(OCCCCC[N+](C)(C)C)cc2)C(=O)N[C@@H](Cc2ccc3ccccc3c2)C(=O)NC2(C(=O)N[C@@H](CCCCN(C)C(C)=O)C(=O)N[C@@H](CC(N)=O)C(=O)N[C@@H](Cc3cccnc3)C(=O)N(C)CC(=O)N(C)C)CCOCC2)NC1=O [compound 164, cPEG3aCO-Pen(3)-N(N(Me)2)-T-7MeW-K(NMeAc)-Pen(3)-TMAPF-2Nal-THP-K(NMeAc)-N-3Pya-Sar-CON(Me)2] ({Me3N+(CH2)2O(CH2)2O(CH2)2CO}-[Pen]D(NMe2)T[Trp(7-Me)][Lys(Me)](Ac)[Pen]Y(X3)[2Nal][Thp][Lys(Me)](Ac)N[3Pal][Sar]-NMe2; disulfide 1-6) | – | 0.013 | – | – | 144.54 |
